In ChEMBL document CHEMBL5058645, “Data for DCP probe JNJ-6204” (2022):

Key:
[1] = biological target: Serine/threonine-protein kinase Nek11 (Homo sapiens) (UniProt Q8NG66); assay: NEK11(h) Kinase panel; settings: Compound concentration 1.0 uM, tested as the 2H-labelled form
[2] = biological target: Serine/threonine-protein kinase 25 (Homo sapiens) (UniProt O00506); assay: STK25(h) Kinase panel; settings: Compound concentration 1.0 uM, tested as the 2H-labelled form
[3] = biological target: Ribosomal protein S6 kinase alpha-6 (Homo sapiens) (UniProt Q9UK32); assay: Rsk4(h) Kinase panel; settings: Compound concentration 1.0 uM, tested as the 2H-labelled form
[4] = biological target: Ephrin type-A receptor 5 (Homo sapiens) (UniProt P54756); assay: EphA5(h) Kinase panel; settings: Compound concentration 1.0 uM, tested as the 2H-labelled form
[5] = biological target: Cyclin-dependent kinase 3 (Homo sapiens) (UniProt Q00526); assay: CDK3/cyclinE(h) Kinase panel; settings: Compound concentration 1.0 uM, tested as the 2H-labelled form
[6] = biological target: Fibroblast growth factor receptor 1 (Homo sapiens) (UniProt P11362); assay: FGFR1(h) Kinase panel; settings: Compound concentration 1.0 uM, tested as the 2H-labelled form
[7] = biological target: Cyclin-dependent kinase 16 (Homo sapiens) (UniProt Q00536); assay: CDK16/cyclinY(h) Kinase panel; settings: Compound concentration 1.0 uM, tested as the 2H-labelled form
[8] = biological target: Dual specificity protein kinase CLK1 (Homo sapiens) (UniProt P49759); assay: CLK1(h) Kinase panel; settings: Compound concentration 1.0 uM, tested as the 2H-labelled form
[9] = biological target: Muscarinic acetylcholine receptor M1 (Homo sapiens) (UniProt P11229); settings: Compound concentration 10.0 uM, tested as the 2H-labelled form
[10] = biological target: 5-hydroxytryptamine receptor 5A (Homo sapiens) (UniProt P47898); settings: Compound concentration 10.0 uM, tested as the 2H-labelled form
[11] = biological target: Ephrin type-A receptor 3 (Homo sapiens) (UniProt P29320); assay: EphA3(h) Kinase panel; settings: Compound concentration 1.0 uM, tested as the 2H-labelled form
[12] = biological target: Wee1-like protein kinase (Homo sapiens) (UniProt P30291); assay: Wee1(h) Kinase panel; settings: Compound concentration 1.0 uM, tested as the 2H-labelled form
[13] = biological target: Focal adhesion kinase 1 (Homo sapiens) (UniProt Q05397); assay: FAK(h) Kinase panel; settings: Compound concentration 1.0 uM, tested as the 2H-labelled form
[14] = biological target: Protein-tyrosine kinase 2-beta (Homo sapiens) (UniProt Q14289); assay: Pyk2(h) Kinase panel; settings: Compound concentration 1.0 uM, tested as the 2H-labelled form
[15] = biological target: Homeodomain-interacting protein kinase 1 (Homo sapiens) (UniProt Q86Z02); assay: HIPK1(h) Kinase panel; settings: Compound concentration 1.0 uM, tested as the 2H-labelled form
[16] = biological target: Wee1-like protein kinase 2 (Homo sapiens) (UniProt P0C1S8); assay: Wee1B(h) Kinase panel; settings: Compound concentration 1.0 uM, tested as the 2H-labelled form
[17] = biological target: [Pyruvate dehydrogenase (acetyl-transferring)] kinase isozyme 2, mitochondrial (Homo sapiens) (UniProt Q15119); assay: PDHK2(h) Kinase panel; settings: Compound concentration 1.0 uM, tested as the 2H-labelled form
[18] = biological target: Tyrosine-protein kinase Lck (Homo sapiens) (UniProt P06239); assay: Lck(h) Kinase panel; settings: Compound concentration 1.0 uM, tested as the 2H-labelled form
[19] = biological target: Tyrosine-protein kinase HCK (Homo sapiens) (UniProt P08631); assay: Hck(h) Kinase panel; settings: Compound concentration 1.0 uM, tested as the 2H-labelled form
Sequence of Tyrosine-protein kinase HCK (Homo sapiens) (P08631 2-526 limits assumed): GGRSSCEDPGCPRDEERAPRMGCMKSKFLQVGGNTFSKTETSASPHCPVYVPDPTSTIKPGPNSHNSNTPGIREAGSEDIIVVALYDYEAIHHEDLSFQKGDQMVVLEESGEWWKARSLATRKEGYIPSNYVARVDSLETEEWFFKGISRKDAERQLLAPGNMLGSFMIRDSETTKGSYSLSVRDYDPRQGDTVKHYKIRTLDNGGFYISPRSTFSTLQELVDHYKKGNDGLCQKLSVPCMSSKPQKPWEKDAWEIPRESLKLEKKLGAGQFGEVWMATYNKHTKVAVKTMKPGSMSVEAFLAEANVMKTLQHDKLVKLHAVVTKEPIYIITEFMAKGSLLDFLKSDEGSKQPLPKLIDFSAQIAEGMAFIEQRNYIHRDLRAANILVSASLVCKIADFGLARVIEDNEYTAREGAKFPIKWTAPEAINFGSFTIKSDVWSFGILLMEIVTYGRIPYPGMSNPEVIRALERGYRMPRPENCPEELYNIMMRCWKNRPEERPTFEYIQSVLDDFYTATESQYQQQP

[20] = biological target: Mitogen-activated protein kinase kinase kinase kinase 3 (Homo sapiens) (UniProt Q8IVH8); assay: MAP4K3(h) Kinase panel; settings: Compound concentration 1.0 uM, tested as the 2H-labelled form
[21] = biological target: Phosphatidylinositol 4,5-bisphosphate 3-kinase catalytic subunit alpha isoform (Homo sapiens) (UniProt P42336); assay: PI3 Kinase (p110a/p85a)(h) Kinase panel; settings: Compound concentration 1.0 uM, tested as the 2H-labelled form
[22] = biological target: Bone morphogenetic protein receptor type-2 (Homo sapiens) (UniProt Q13873); assay: BMPR2(h) Kinase panel; settings: Compound concentration 1.0 uM, tested as the 2H-labelled form
[23] = biological target: Dual specificity protein kinase CLK3 (Homo sapiens) (UniProt P49761); assay: CLK3(h) Kinase panel; settings: Compound concentration 1.0 uM, tested as the 2H-labelled form
[24] = biological target: Serine/threonine-protein kinase N2 (Homo sapiens) (UniProt Q16513); assay: PRK2(h) Kinase panel; settings: Compound concentration 1.0 uM, tested as the 2H-labelled form
[25] = biological target: Dual specificity mitogen-activated protein kinase kinase 1 (Homo sapiens) (UniProt Q02750); assay: MEK1(h) Kinase panel; settings: Compound concentration 1.0 uM, tested as the 2H-labelled form
Sequence of Dual specificity mitogen-activated protein kinase kinase 1 (Homo sapiens) (Q02750 whole entry): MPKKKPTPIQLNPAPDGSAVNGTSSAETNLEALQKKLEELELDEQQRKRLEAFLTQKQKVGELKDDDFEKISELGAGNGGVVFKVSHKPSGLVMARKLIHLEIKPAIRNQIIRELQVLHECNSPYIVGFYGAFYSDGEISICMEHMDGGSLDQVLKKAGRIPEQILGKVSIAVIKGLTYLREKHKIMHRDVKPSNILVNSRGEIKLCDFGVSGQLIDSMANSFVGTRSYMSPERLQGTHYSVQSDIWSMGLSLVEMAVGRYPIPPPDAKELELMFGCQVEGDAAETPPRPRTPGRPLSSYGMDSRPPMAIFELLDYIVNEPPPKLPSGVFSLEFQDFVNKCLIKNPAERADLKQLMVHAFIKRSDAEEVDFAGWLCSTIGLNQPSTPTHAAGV

[26] = biological target: Mitogen-activated protein kinase 11 (Homo sapiens, UniProt Q15759); assay: SAPK2b(h) Kinase panel; settings: Compound concentration 1.0 uM, tested as the 2H-labelled form
[27] = biological target: Serine/threonine-protein kinase Sgk3 (Homo sapiens) (UniProt Q96BR1); assay: SGK3(h) Kinase panel; settings: Compound concentration 1.0 uM, tested as the 2H-labelled form
[28] = biological target: Alpha-2B adrenergic receptor (Homo sapiens) (UniProt P18089); settings: Compound concentration 10.0 uM, tested as the 2H-labelled form
Sequence of Alpha-2B adrenergic receptor (Homo sapiens) (P18089 whole entry): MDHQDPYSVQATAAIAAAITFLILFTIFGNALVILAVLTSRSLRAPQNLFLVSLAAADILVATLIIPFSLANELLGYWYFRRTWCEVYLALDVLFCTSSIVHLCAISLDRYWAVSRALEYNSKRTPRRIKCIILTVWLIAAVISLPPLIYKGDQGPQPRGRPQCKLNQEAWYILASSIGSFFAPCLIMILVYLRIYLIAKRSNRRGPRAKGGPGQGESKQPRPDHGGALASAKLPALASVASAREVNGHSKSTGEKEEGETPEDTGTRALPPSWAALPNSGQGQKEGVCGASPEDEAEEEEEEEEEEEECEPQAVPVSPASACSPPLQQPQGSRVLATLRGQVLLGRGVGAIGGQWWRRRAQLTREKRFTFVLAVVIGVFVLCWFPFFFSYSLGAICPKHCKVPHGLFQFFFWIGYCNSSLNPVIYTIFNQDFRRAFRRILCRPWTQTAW

[29] = biological target: Dual specificity mitogen-activated protein kinase kinase 2 (Homo sapiens) (UniProt P36507); assay: MEK2(h) Kinase panel; settings: Compound concentration 1.0 uM, tested as the 2H-labelled form
Sequence of Dual specificity mitogen-activated protein kinase kinase 2 (Homo sapiens) (P36507 whole entry): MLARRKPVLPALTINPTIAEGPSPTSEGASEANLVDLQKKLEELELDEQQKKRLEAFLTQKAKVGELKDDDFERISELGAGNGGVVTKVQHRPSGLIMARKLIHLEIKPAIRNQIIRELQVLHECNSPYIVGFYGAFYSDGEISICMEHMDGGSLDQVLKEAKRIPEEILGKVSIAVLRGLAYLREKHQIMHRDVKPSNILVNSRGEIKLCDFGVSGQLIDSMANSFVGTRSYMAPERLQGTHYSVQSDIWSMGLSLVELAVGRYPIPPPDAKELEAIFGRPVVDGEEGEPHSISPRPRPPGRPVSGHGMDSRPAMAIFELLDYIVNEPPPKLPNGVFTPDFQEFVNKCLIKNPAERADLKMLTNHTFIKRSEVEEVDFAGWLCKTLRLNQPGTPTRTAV

[30] = biological target: Serine/threonine-protein kinase Chk1 (Homo sapiens) (UniProt O14757); assay: CHK1(h) Kinase panel; settings: Compound concentration 1.0 uM, tested as the 2H-labelled form
Homo sapiens = species on record: Homo sapiens; assay: MAPK2(h) Kinase panel; settings: Compound concentration 1.0 uM, tested as the 2H-labelled form
[31] = biological target: Mitogen-activated protein kinase kinase kinase 5 (Homo sapiens) (UniProt Q99683); assay: ASK1(h) Kinase panel; settings: Compound concentration 1.0 uM, tested as the 2H-labelled form
[32] = biological target: Cyclin-dependent kinase 14 (Homo sapiens) (UniProt O94921); assay: CDK14/cyclinY(h) Kinase panel; settings: Compound concentration 1.0 uM, tested as the 2H-labelled form
[33] = biological target: SRSF protein kinase 2 (Homo sapiens) (UniProt P78362); assay: SRPK2(h) Kinase panel; settings: Compound concentration 1.0 uM, tested as the 2H-labelled form
[34] = biological target: Phosphatidylinositol 4,5-bisphosphate 3-kinase catalytic subunit beta isoform (Homo sapiens) (UniProt P42338); assay: PI3 Kinase (p110b/p85a)(h) Kinase panel; settings: Compound concentration 1.0 uM, tested as the 2H-labelled form
Sequence of Phosphatidylinositol 4,5-bisphosphate 3-kinase catalytic subunit beta isoform (Homo sapiens) (P42338 whole entry, looked up, canonical isoform): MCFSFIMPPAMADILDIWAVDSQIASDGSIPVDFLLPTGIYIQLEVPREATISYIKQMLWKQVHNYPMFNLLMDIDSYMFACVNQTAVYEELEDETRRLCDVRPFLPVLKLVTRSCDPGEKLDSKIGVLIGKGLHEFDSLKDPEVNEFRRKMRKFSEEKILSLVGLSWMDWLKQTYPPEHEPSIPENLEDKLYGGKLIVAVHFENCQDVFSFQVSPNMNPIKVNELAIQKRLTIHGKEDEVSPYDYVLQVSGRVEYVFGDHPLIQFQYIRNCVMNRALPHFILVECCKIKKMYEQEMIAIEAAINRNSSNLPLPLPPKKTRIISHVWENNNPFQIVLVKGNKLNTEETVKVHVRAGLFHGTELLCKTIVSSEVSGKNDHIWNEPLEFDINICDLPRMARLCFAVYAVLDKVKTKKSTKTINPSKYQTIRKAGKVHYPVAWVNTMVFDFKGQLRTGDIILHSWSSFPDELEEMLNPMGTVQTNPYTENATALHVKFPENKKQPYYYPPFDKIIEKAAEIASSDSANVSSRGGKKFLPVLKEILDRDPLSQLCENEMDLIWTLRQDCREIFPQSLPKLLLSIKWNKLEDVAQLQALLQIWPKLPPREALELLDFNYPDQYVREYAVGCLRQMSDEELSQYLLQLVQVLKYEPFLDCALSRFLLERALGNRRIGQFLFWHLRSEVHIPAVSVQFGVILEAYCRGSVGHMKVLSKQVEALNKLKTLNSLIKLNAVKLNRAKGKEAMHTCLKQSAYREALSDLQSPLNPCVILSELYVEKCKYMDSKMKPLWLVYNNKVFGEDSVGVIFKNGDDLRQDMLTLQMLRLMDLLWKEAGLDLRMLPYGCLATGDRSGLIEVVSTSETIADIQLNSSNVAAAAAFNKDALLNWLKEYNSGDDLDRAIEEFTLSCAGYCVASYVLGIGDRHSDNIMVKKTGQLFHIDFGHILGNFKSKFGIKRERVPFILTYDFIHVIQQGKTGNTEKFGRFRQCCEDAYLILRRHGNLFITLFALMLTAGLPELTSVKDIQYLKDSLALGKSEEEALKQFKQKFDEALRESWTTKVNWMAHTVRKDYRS

[35] = biological target: Eukaryotic elongation factor 2 kinase (Homo sapiens) (UniProt O00418); assay: eEF-2K(h) Kinase panel; settings: Compound concentration 1.0 uM, tested as the 2H-labelled form
[36] = biological target: Serine/threonine-protein kinase SIK3 (Homo sapiens) (UniProt Q9Y2K2); assay: SIK3(h) Kinase panel; settings: Compound concentration 1.0 uM, tested as the 2H-labelled form
[37] = biological target: Macrophage colony-stimulating factor 1 receptor (Homo sapiens, UniProt P07333); assay: Fms(h) Kinase panel; settings: Compound concentration 1.0 uM, tested as the 2H-labelled form
[38] = biological target: Serine/threonine-protein kinase pim-2 (Homo sapiens) (UniProt Q9P1W9); assay: Pim-2(h) Kinase panel; settings: Compound concentration 1.0 uM, tested as the 2H-labelled form
Sequence of Serine/threonine-protein kinase pim-2 (Homo sapiens) (Q9P1W9 whole entry, looked up): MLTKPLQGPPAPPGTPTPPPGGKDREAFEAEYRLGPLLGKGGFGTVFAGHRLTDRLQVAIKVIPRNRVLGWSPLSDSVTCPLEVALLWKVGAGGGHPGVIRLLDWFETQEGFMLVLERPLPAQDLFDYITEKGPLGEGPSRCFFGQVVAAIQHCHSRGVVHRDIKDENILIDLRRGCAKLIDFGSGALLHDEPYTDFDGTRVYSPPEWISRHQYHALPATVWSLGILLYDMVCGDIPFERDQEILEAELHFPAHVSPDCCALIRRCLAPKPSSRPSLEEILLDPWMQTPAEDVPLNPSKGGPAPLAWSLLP

[39] = biological target: Inhibitor of nuclear factor kappa-B kinase subunit epsilon (Homo sapiens) (UniProt Q14164); assay: IKKepsilon(h) Kinase panel; settings: Compound concentration 1.0 uM, tested as the 2H-labelled form
[40] = biological target: Inhibitor of nuclear factor kappa-B kinase subunit alpha (Homo sapiens) (UniProt O15111); assay: IKKalpha(h) Kinase panel; settings: Compound concentration 1.0 uM, tested as the 2H-labelled form
Sequence of Inhibitor of nuclear factor kappa-B kinase subunit alpha (Homo sapiens) (O15111 whole entry): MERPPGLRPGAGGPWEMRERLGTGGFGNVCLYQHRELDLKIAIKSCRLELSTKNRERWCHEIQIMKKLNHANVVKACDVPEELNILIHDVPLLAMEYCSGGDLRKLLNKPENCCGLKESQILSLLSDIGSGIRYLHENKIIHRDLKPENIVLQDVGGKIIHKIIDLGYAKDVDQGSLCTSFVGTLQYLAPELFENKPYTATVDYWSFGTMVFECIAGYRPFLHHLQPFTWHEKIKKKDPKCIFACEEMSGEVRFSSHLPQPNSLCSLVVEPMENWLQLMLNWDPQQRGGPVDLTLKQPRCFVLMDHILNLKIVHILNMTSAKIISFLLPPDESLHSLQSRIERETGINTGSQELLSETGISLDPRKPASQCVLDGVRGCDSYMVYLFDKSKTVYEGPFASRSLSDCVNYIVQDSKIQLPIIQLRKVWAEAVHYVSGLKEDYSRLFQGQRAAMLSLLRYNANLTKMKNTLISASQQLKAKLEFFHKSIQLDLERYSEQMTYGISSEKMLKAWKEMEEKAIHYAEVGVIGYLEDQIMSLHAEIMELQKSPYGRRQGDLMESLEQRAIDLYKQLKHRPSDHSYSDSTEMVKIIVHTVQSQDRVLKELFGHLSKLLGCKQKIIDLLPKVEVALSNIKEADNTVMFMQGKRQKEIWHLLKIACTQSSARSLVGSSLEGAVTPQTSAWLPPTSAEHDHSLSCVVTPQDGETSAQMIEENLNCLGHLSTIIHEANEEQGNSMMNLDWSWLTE

[41] = biological target: Vascular endothelial growth factor receptor 1 (Homo sapiens) (UniProt P17948); assay: Flt1(h) Kinase panel; settings: Compound concentration 1.0 uM, tested as the 2H-labelled form
[42] = biological target: Tyrosine-protein kinase ZAP-70 (Homo sapiens) (UniProt P43403); assay: ZAP-70(h) Kinase panel; settings: Compound concentration 1.0 uM, tested as the 2H-labelled form
Sequence of Tyrosine-protein kinase ZAP-70 (Homo sapiens) (P43403 whole entry): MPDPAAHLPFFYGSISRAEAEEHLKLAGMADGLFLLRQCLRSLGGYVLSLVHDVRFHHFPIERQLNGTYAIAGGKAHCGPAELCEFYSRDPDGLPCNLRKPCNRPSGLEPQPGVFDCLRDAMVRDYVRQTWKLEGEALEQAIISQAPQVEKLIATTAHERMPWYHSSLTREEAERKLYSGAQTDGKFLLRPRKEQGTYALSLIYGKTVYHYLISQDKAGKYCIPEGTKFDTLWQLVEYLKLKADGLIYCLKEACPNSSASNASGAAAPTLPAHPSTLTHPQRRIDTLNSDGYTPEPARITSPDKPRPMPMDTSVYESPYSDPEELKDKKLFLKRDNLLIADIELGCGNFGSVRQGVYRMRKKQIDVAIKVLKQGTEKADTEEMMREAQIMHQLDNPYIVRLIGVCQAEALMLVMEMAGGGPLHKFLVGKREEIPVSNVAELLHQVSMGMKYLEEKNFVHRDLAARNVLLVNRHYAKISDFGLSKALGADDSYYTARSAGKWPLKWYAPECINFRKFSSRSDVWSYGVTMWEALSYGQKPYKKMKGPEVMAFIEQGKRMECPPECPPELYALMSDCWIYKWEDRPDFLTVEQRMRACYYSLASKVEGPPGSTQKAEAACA

[43] = biological target: Protein kinase C iota type (Homo sapiens) (UniProt P41743); assay: PKCiota (h) Kinase panel; settings: Compound concentration 1.0 uM, tested as the 2H-labelled form
[44] = biological target: Tyrosine-protein kinase HCK (Homo sapiens) (UniProt P08631); assay: Hck(h) activated Kinase panel; settings: Compound concentration 1.0 uM, tested as the 2H-labelled form
[45] = biological target: Cyclin-dependent kinase 2 (Homo sapiens) (UniProt P24941); assay: CDK2/cyclinE(h) Kinase panel; settings: Compound concentration 1.0 uM, tested as the 2H-labelled form
[46] = biological target: Muscarinic acetylcholine receptor M4 (Homo sapiens) (UniProt P08173); settings: Compound concentration 10.0 uM, tested as the 2H-labelled form
[47] = biological target: MAP kinase-interacting serine/threonine-protein kinase 2 (Homo sapiens) (UniProt Q9HBH9); assay: Mnk2(h) Kinase panel; settings: Compound concentration 1.0 uM, tested as the 2H-labelled form
[48] = biological target: BDNF/NT-3 growth factors receptor (Homo sapiens) (UniProt Q16620); assay: TrkB(h) Kinase panel; settings: Compound concentration 1.0 uM, tested as the 2H-labelled form
[49] = biological target: Tyrosine-protein kinase Yes (Homo sapiens) (UniProt P07947); assay: Yes(h) Kinase panel; settings: Compound concentration 1.0 uM, tested as the 2H-labelled form
[50] = biological target: Mitogen-activated protein kinase 9 (Homo sapiens) (UniProt P45984); assay: JNK2alpha2(h) Kinase panel; settings: Compound concentration 1.0 uM, tested as the 2H-labelled form
[51] = biological target: Tyrosine-protein kinase receptor UFO (Homo sapiens) (UniProt P30530); assay: Axl(h) Kinase panel; settings: Compound concentration 1.0 uM, tested as the 2H-labelled form

Measured: inhibition

Sequence of Serine/threonine-protein kinase 25 (Homo sapiens) (O00506 whole entry, looked up): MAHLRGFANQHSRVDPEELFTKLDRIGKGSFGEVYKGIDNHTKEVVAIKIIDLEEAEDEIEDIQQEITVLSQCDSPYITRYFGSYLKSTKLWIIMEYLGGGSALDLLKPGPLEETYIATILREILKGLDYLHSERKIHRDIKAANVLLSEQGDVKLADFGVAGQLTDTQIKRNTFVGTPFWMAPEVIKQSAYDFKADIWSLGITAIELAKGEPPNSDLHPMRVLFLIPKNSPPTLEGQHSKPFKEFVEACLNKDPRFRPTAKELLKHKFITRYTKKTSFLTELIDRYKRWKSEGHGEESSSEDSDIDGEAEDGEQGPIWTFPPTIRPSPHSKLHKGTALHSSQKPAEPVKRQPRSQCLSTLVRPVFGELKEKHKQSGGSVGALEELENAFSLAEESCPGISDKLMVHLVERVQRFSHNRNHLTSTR

CC1(C)Cn2nc(-c3ccc(F)cn3)c(-c3ccnc4[nH]ncc34)c2CO1
inactive: [1] 12% | [2] 21% | [3] 23% | [4] -3% | [5] -8% | [6] 5% | [7] 12% | [8] 6% | [9] -1.28% | [10] 3.27% | [11] -6% | [12] 10% | [13] 1% | [14] -2% | [15] 3% | [16] -1% | [17] 26% | [18] 17% | [19] 25% | [20] -7% | [21] 2% | [22] -7% | [23] -9% | [24] -6% | [25] 4% | [26] -3% | [27] 4% | [28] 2.83% | [29] 4% | [30] -6% | Homo sapiens 6% | [31] 12% | [32] 9% | [33] -8% | [34] 0% | [35] 7% | [36] -1% | [37] 0% | [38] -4% | [39] -1% | [40] 8% | [41] 7% | [42] 12% | [43] -2% | [44] 9% | [45] 7% | [46] 1.83% | [47] 20% | [48] -5% | [49] -6% | [50] -2% | [51] 16%
